Measured values reported in EP4745118A1, “HYDROXAMIC ACID COMPOUND OR PHARMACEUTICALLY ACCEPTABLE SALT THEREOF, AND USE THEREOF AND PREPARATION METHOD THEREFOR” (priority 2023, dated 2025).
Values after ≈ are worked out from the molar mass of the structure shown. Read-outs that look alike come from different tables or passages of the source.

Assays:
Assay in all cases: In vitro antibacterial activity, agar dilution method (MIC)
Type in all cases: cell-based
Pseudomonas aeruginosa = test system: Pseudomonas aeruginosa
Experimental: (§1) According to the relevant operating procedures of the Clinical Laboratory Standards Institute (CLSI) in the United States, an antimicrobial susceptibility testing was conducted using the agar dilution method. […]. The agar was allowed to solidify and set aside for later use.
(§2) The test bacteria were propagated in broth and adjusted to a turbidity of 0.5 McFarland (approximately 1-2 × 10^8 CFU/mL) using a turbidimeter before inoculation. The 0.5 McFarland bacterial solution was then diluted 10-fold in broth (approximately 1-2 × 10^7 CFU/mL). A multipoint inoculator was used to inoculate the above bacterial solution onto a series of plates containing different concentrations of drugs (with an inoculation amount of approximately 10^4 CFU per inoculation site). After incubation at a constant temperature of 35°C for 18 hours, results were observed. The minimum concentration of drugs contained in sterile growth plates was determined as the Minimal Inhibitory Concentration (MIC).

Pantoea agglomerans = test system: Pantoea agglomerans
Experimental: as §1, §2

Proteus vulgaris = test system: Proteus vulgaris
Experimental: as §1, §2

Proteus mirabilis = test system: Proteus mirabilis
Experimental: as §1, §2

Citrobacter freundii = test system: Citrobacter freundii
Experimental: as §1, §2

Serratia marcescens = test system: Serratia marcescens
Experimental: as §1, §2

Escherichia coli = conditions: Escherichia coli, agar dilution, 35°C
Experimental: as §1, §2

Enterobacter aerogenes = conditions: Klebsiella aerogenes
Experimental: as §1, §2

Klebsiella pneumoniae = conditions: Klebsiella pneumoniae, agar dilution, 35°C
Experimental: as §1, §2

Enterobacter cloacae = test system: Enterobacter cloacae
Experimental: According to the relevant operating procedures of the Clinical Laboratory Standards Institute (CLSI) in the United States, an antimicrobial susceptibility testing was conducted using the agar dilution method. […] The agar was allowed to solidify and set aside for later use.
as §2

Shigella flexneri = conditions: ATCC12022, Shigella flexneri ATCC 12022, 35°C, 18 hours, read-out: MIC
Experimental: According to the relevant operating procedures of the Clinical Laboratory Standards Institute (CLSI) in the United States, an antimicrobial susceptibility testing was conducted using the agar dilution method. A 1920 µg/mL stock solution was serially diluted twofold with sterile water to obtain dilutions of 960, 480, 240, 120, 60, 30, 15, 7.5, 3.75, 1.88, 0.94, 0.47 µg/mL, and 1 mL of the dilution was taken respectively from the dilutions with different concentrations and added to a Petri dish, to which 14 mL of melted MH agar medium was added and mixed thoroughly, and the final concentration of the drug in the petri dish is 128, 64, 32, 16, 8, 4, 2, 1, 0.5, 0.25, 0.12, 0.06, and 0.03 µ g/mL, respectively. The agar was allowed to solidify and set aside for later use.
as §2

[1] = Pseudomonas aeruginosa PAO1, agar dilution, 35°C, 18 hours, read-out: MIC
[2] = ATCC27993, Pantoea agglomerans ATCC 27993, agar dilution, 35°C, 18 hours, read-out: MIC
[3] = ATCC29905, Proteus vulgaris ATCC 29905, agar dilution, 35°C, 18 hours, read-out: MIC
[4] = ATCC49565, Proteus mirabilis ATCC 49565, agar dilution, 35°C, 18 hours, read-out: MIC
[5] = ATCC43864, Citrobacter freundii ATCC 43864, agar dilution, 35°C, 18 hours, read-out: MIC
[6] = ATCC21074, Serratia marcescens ATCC 21074, agar dilution, 35°C, 18 hours, read-out: MIC
[7] = 18 h, Escherichia coli 13-43 (mcr-1), 18 hours, read-out: MIC
[8] = 18 h, Escherichia coli 17-R28 (CRE, NDM-1-producing), 18 hours, read-out: MIC
[9] = ATCC2469, 18 h, Escherichia coli ATCC 2469 (CRE, NDM-1-producing), 18 hours, read-out: MIC
[10] = ATCC35218, 18 h, Escherichia coli ATCC 35218 (ESBLs-producing), 18 hours, read-out: MIC
[11] = ATCC13048, Enterobacter aerogenes ATCC 13048, agar dilution, 35°C, 18 hours, read-out: MIC
[12] = 18 h, Klebsiella pneumoniae 09-20 (mcr-1), 18 hours, read-out: MIC
[13] = 18 h, Klebsiella pneumoniae 17-R27 (CRE), 18 hours, read-out: MIC
[14] = ATCC700603, 18 h, Klebsiella pneumoniae ATCC 700603 (ESBLs-producing), 18 hours, read-out: MIC
[15] = ATCCBAA2146, 18 h, Klebsiella pneumoniae ATCC BAA-2146 (CRE, NDM-1-producing), 18 hours, read-out: MIC
[16] = Enterobacter cloacae CDC1000654 (NDM-1-producing), agar dilution, 35°C, 18 hours, read-out: MIC
[17] = 18 h, Klebsiella pneumoniae 18-8 (ESBLs-producing), 18 hours, read-out: MIC
[18] = ATCCBAA2146, 18 h, Klebsiella pneumoniae ATCC BAA-2146 (CRE, NDM-1-producing), 18 hours

SMILES	MIC (Pseudomonas aeruginosa; [1])	MIC (Pantoea agglomerans; [2])	MIC (Proteus vulgaris; [3])	MIC (Proteus mirabilis; [4])	MIC (Citrobacter freundii; [5])	MIC (Serratia marcescens; [6])	MIC (Escherichia coli; [7])	MIC (Escherichia coli; [8])	MIC (Escherichia coli; [9])	MIC (Escherichia coli; [10])	MIC (Enterobacter aerogenes; [11])	MIC (Klebsiella pneumoniae; [12])	MIC (Klebsiella pneumoniae; [13])	MIC (Klebsiella pneumoniae; [14])	MIC (Klebsiella pneumoniae; [15])	MIC (Enterobacter cloacae; [16])	MIC (Shigella flexneri)	MIC (Klebsiella pneumoniae; [17])	MIC (Klebsiella pneumoniae; [18])	further results
COCC1CC1C#CC#Cc1ccc(C(=O)N[C@H](C(=O)NO)C(C)(C)N)cc1 (some centres unmarked) [Formula I]	2 µg/mL	4 µg/mL	0.5 µg/mL	2 µg/mL	0.5 µg/mL	0.5 µg/mL	0.5 µg/mL	0.5 µg/mL	0.5 µg/mL	0.5 µg/mL	2 µg/mL	2 µg/mL	2 µg/mL	4 µg/mL	8 µg/mL	4 µg/mL	0.25 µg/mL	–	–	–
NCC[C@H](O)C(=O)N[C@@H]1C[C@H](N)[C@@H](O[C@H]2O[C@H](CN)[C@@H](O)[C@H](O)[C@H]2O)[C@H](O)[C@H]1O[C@H]1O[C@H](CO)[C@@H](O)[C@H](N)[C@H]1O [Amikacin]	2 µg/mL (≈ 3.42 µM)	2 µg/mL (≈ 3.42 µM)	1 µg/mL (≈ 1.71 µM)	2 µg/mL (≈ 3.42 µM)	2 µg/mL (≈ 3.42 µM)	2 µg/mL (≈ 3.42 µM)	4 µg/mL (≈ 6.83 µM)	> 128 µg/mL	> 128 µg/mL	4 µg/mL (≈ 6.83 µM)	1 µg/mL (≈ 1.71 µM)	> 128 µg/mL	2 µg/mL (≈ 3.42 µM)	1 µg/mL (≈ 1.71 µM)	> 128 µg/mL	> 128 µg/mL	4 µg/mL (≈ 6.83 µM)	1 µg/mL (≈ 1.71 µM)	–	–
CN(C)c1cc(NC(=O)CNC(C)(C)C)c(O)c2c1C[C@H]1C[C@H]3[C@H](N(C)C)C(O)=C(C(N)=O)C(=O)[C@@]3(O)C(O)=C1C2=O [Tigecycline]	–	–	–	–	–	–	–	–	–	0.12 µg/mL (≈ 0.205 µM)	–	–	–	8 µg/mL (≈ 13.7 µM)	–	–	0.12 µg/mL (≈ 0.205 µM)	2 µg/mL (≈ 3.41 µM)	8 µg/mL (≈ 13.7 µM)	MIC (Pseudomonas aeruginosa; Pseudomonas aeruginosa, PAO1, 18 h): 16 µg/mL (≈ 27.3 µM); MIC (Pantoea agglomerans; Pantoea agglomerans, ATCC27993, 18 h): 0.5 µg/mL (≈ 0.854 µM); MIC (Proteus vulgaris; Proteus vulgaris, ATCC29905, 18 h): 2 µg/mL (≈ 3.41 µM); MIC (Proteus mirabilis; Proteus mirabilis, ATCC49565, 18 h): 4 µg/mL (≈ 6.83 µM); MIC (Citrobacter freundii; Citrobacter freundii, ATCC43864, 18 h): 1 µg/mL (≈ 1.71 µM); MIC (Serratia marcescens; Serratia marcescens, ATCC21074, 18 h): 2 µg/mL (≈ 3.41 µM); MIC (Escherichia coli; 18 h, Escherichia coli 13-43 (mcr-1)): 1 µg/mL (≈ 1.71 µM); MIC (Escherichia coli; 18 h, Escherichia coli 17-R28 (CRE, NDM-1-producing)): 0.12 µg/mL (≈ 0.205 µM); MIC (Escherichia coli; ATCC2469, 18 h, Escherichia coli ATCC 2469 (CRE, NDM-1-producing), 18 hours): 0.5 µg/mL (≈ 0.854 µM); MIC (Enterobacter aerogenes; ATCC13048, 18 h): 1 µg/mL (≈ 1.71 µM); MIC (Klebsiella pneumoniae; 18 h, Klebsiella pneumoniae 09-20 (mcr-1)): 2 µg/mL (≈ 3.41 µM); MIC (Klebsiella pneumoniae; 18 h, Klebsiella pneumoniae 17-R27 (CRE)): 2 µg/mL (≈ 3.41 µM); MIC (Enterobacter cloacae; Enterobacter cloacae, 18 h): 8 µg/mL (≈ 13.7 µM)
C[C@H]1COc2c(N3CCN(C)CC3)c(F)cc3c(=O)c(C(=O)O)cn1c23 [Levofloxacin]	0.5 µg/mL (≈ 1.38 µM)	0.06 µg/mL (≈ 0.166 µM)	≤ 0.03 µg/mL	0.12 µg/mL (≈ 0.332 µM)	≤ 0.03 µg/mL	0.25 µg/mL (≈ 0.692 µM)	64 µg/mL (≈ 177 µM)	8 µg/mL (≈ 22.1 µM)	16 µg/mL (≈ 44.3 µM)	≤ 0.03 µg/mL	0.06 µg/mL (≈ 0.166 µM)	16 µg/mL (≈ 44.3 µM)	16 µg/mL (≈ 44.3 µM)	1 µg/mL (≈ 2.77 µM)	–	64 µg/mL (≈ 177 µM)	≤ 0.03 µg/mL	1 µg/mL (≈ 2.77 µM)	> 128 µg/mL	–
